Several values for one entry are separate records, joined by “and”; a condition that tells them apart may be missing. Equal values may be shown once. Read-outs that look alike come from different tables or passages of the source.
Assay: Mouse PK study (IV and PO), plasma parent compound and psilocin by LC-MS/MS
Assay type: in vivo
Conditions: for Plasma concentration of psilocin: BLQ = below 0.5 ng/mL; for F: C(XX); for concentration at 5 min / concentration at 0.25 h / concentration at 0.5 h / concentration at 1 h / concentration at 2 h / concentration at 4 h: intravenous, read-out: Plasma concentration of C(XX)
Excerpt: Briefly, the procedure was as follows. […] 19, 2022.

[1] = 10 mg/kg oral C(XX), individual animals
[2] = C(XX) in plasma, 1 mg/kg i.v. C(XX), Mean ± SD
[3] = C(XX) in plasma, 1 mg/kg i.v. C(XX), per animal, 1 mg/kg
[4] = C(XX) in plasma, 1 mg/kg oral C(XX), per animal, 1 mg/kg
[5] = C(XX) in plasma, 3 mg/kg oral C(XX), Mean ± SD
[6] = C(XX) in plasma, 3 mg/kg oral C(XX), per animal, 3 mg/kg
[7] = male, C57Bl/6, mouse, plasma, 1 mg/kg, 1 mg/kg i.v. C(XX), Mean ± SD
[8] = male, C57Bl/6, mouse, plasma, 1 mg/kg, 1 mg/kg i.v. C(XX), per animal, BLQ <0.25 ng/mL

CN(C)CCc1c[nH]c2cccc(OC(=O)c3cccc4c3OCCO4)c12 [C(XX)]
Plasma concentration of C(XX) (1 mg/kg i.v. C(XX), 6 h, per animal, BLQ <0.25 ng/mL): BLQ
Plasma concentration of psilocin (1 mg/kg i.v. C(XX), 8 h, individual animals): BLQ
Plasma concentration of C(XX) (1 mg/kg i.v. C(XX), 8 h, per animal, BLQ <0.25 ng/mL): BLQ and No (2×)
AUC0-tlast/Dose of C(XX) in plasma (1 mg/kg i.v. C(XX), mean ± SD): 52.8 ± 8.30 kg·ng·h/mL/mg
Plasma concentration of C(XX) (1 mg/kg oral C(XX), 2 h, per animal, BLQ <0.25 ng/mL): BLQ
Plasma concentration of C(XX) (1 mg/kg oral C(XX), 4 h, per animal, BLQ <0.25 ng/mL): BLQ
Plasma concentration of C(XX) (1 mg/kg oral C(XX), 6 h, per animal, BLQ <0.25 ng/mL): No Peak (2×) and BLQ
Plasma concentration of C(XX) (1 mg/kg oral C(XX), 8 h, per animal, BLQ <0.25 ng/mL): No Peak (2×) and BLQ
Plasma concentration of psilocin (1 mg/kg oral C(XX), 24 h, individual animals): BLQ
Plasma concentration of C(XX) (1 mg/kg oral C(XX), 24 h, per animal, BLQ <0.25 ng/mL): No Peak
Cmax/Dose of C(XX) in plasma (1 mg/kg p.o. C(XX), mean ± SD): 0.620 kg·ng/mL/mg
Plasma concentration of C(XX) (3 mg/kg oral C(XX), 4 h, per animal, BLQ <0.25 ng/mL): No Peak (2×) and BLQ
Plasma concentration of C(XX) (3 mg/kg oral C(XX), 6 h, per animal, BLQ <0.25 ng/mL): No Peak and BLQ (2×)
Plasma concentration of C(XX) (3 mg/kg oral C(XX), 8 h, per animal, BLQ <0.25 ng/mL): No Peak and BLQ (2×)
Plasma concentration of psilocin (3 mg/kg oral C(XX), 24 h, individual animals): BLQ
Plasma concentration of C(XX) (3 mg/kg oral C(XX), 24 h, per animal, BLQ <0.25 ng/mL): No Peak
AUC0-tlast/Dose of C(XX) in plasma (3 mg/kg p.o. C(XX), mean ± SD): 0.458 kg·ng·h/mL/mg
Cmax/Dose of C(XX) in plasma (3 mg/kg p.o. C(XX), mean ± SD): 0.571 kg·ng/mL/mg
F(%) of C(XX) (3 mg/kg p.o. C(XX), mean ± SD): 0.953%
Plasma concentration of C(XX) (10 mg/kg oral C(XX), 4 h, per animal, BLQ <0.25 ng/mL): BLQ
Plasma concentration of C(XX) (10 mg/kg oral C(XX), 6 h, per animal, BLQ <0.25 ng/mL): BLQ
Plasma concentration of C(XX) (10 mg/kg oral C(XX), 8 h, per animal, BLQ <0.25 ng/mL): BLQ
Plasma concentration of psilocin (10 mg/kg oral C(XX), 24 h, individual animals): BLQ
Plasma concentration of C(XX) (10 mg/kg oral C(XX), 24 h, per animal, BLQ <0.25 ng/mL): No Peak
AUC0-tlast/Dose of C(XX) in plasma [1]: 0.565 kg·ng·h/mL/mg and 0.499 kg·ng·h/mL/mg and 0.916 kg·ng·h/mL/mg
Cmax of C(XX) in plasma [1]: 2.99 ng/mL and 9.12 ng/mL and 10.3 ng/mL
Cmax/Dose of C(XX) in plasma [1]: 0.299 kg·ng/mL/mg and 0.912 kg·ng/mL/mg and 1.03 kg·ng/mL/mg
MRT0-inf of C(XX) in plasma [1]: 48 min and 214 min
F(%) of C(XX) (10 mg/kg oral C(XX), individual animals, AUC0-tlast used, might be under-estimated): 1.07% and 0.941% and 1.73%
Apparent t1/2 of C(XX) in plasma (10 mg/kg oral C(XX), individual animals, M60 estimate may not be accurate): 32 min and 340 min
AUC0-tlast/Dose of C(XX) in plasma (10 mg/kg oral C(XX), mean ± SD): 0.660 ± 0.224 kg·ng·h/mL/mg
Cmax/Dose of C(XX) in plasma (10 mg/kg oral C(XX), mean ± SD): 0.747 ± 0.392 kg·ng/mL/mg
F(%) of C(XX) (10 mg/kg oral C(XX), mean ± SD, AUC0-tlast used): 1.24 ± 0.423%
AUC0-inf/Dose [2]: 53.0 ± 8.26 kg·ng·h/mL/mg
AUC0-tlast/Dose [2]: 52.8 ± 8.30 kg·ng·h/mL/mg
AUC0-inf/Dose [3]: 48.3 kg·ng·h/mL/mg and 62.5 kg·ng·h/mL/mg and 48.1 kg·ng·h/mL/mg
AUC0-tlast [3]: 48.0 ng·h/mL
AUC0-tlast/Dose [3]: 48.1 kg·ng·h/mL/mg and 62.4 kg·ng·h/mL/mg and 48.0 kg·ng·h/mL/mg
AUC(0-inf) [3]: 48.1 ng·h/mL
Apparent t1/2 [3]: 32.2 min
C0 [3]: 139 ng/mL
CL [3]: 346.28 mL/min/kg
Vss [3]: 8.913 L/kg
Cmax/Dose (C(XX) in plasma, 1 mg/kg oral C(XX), Mean ± SD): 0.620 ± 0.0996 kg·ng/mL/mg
Cmax/Dose [4]: 0.702 kg·ng/mL/mg and 0.509 kg·ng/mL/mg and 0.648 kg·ng/mL/mg
Tmax [4]: 30 min
AUC0-tlast/Dose [5]: 0.458 ± 0.0457 kg·ng·h/mL/mg
Cmax/Dose [5]: 0.571 ± 0.0734 kg·ng/mL/mg
Tmax (C(XX) in plasma, 3 mg/kg oral C(XX), per animal): 15 min
AUC0-inf/Dose [6]: 0.510 kg·ng·h/mL/mg
AUC0-tlast [6]: 1.42 ng·h/mL
AUC0-tlast/Dose [6]: 0.406 kg·ng·h/mL/mg and 0.494 kg·ng·h/mL/mg and 0.474 kg·ng·h/mL/mg
Cmax/Dose [6]: 0.497 kg·ng/mL/mg and 0.573 kg·ng/mL/mg and 0.643 kg·ng/mL/mg
MRT0-inf [6]: 49.4 min
F (3 mg/kg oral C(XX), Mean ± SD): 0.953 ± 0.132%
F (3 mg/kg oral C(XX), per animal, 3 mg/kg): 0.816% and 1.08%
concentration at 5 min [7]: 122 ± 26.1 ng/mL
concentration at 5 min [8]: 109 ng/mL
concentration at 0.25 h [7]: 70.5 ± 12.7 ng/mL
concentration at 0.25 h [8]: 66.5 ng/mL
concentration at 0.5 h [7]: 32 ± 5.9 ng/mL
concentration at 0.5 h [8]: 26.1 ng/mL
concentration at 1 h [7]: 8.43 ± 0.438 ng/mL
concentration at 1 h [8]: 8.93 ng/mL
concentration at 2 h (male, C57Bl/6, mouse, plasma, 1 mg/kg, 1 mg/kg i.v. C(XX), 2 h, Mean ± SD): 1.05 ± 0.0871 ng/mL
concentration at 2 h (male, C57Bl/6, mouse, plasma, 1 mg/kg, 1 mg/kg i.v. C(XX), 2 h, per animal, BLQ <0.25 ng/mL): 0.968 ng/mL
concentration at 4 h (male, C57Bl/6, mouse, plasma, 1 mg/kg, 1 mg/kg i.v. C(XX), 4 h, Mean ± SD): 0.181 ± 0.0663 ng/mL
concentration at 4 h (male, C57Bl/6, mouse, plasma, 1 mg/kg, 1 mg/kg i.v. C(XX), 4 h, per animal, BLQ <0.25 ng/mL): 0.257 ng/mL
half-life (male, C57Bl/6, mouse, plasma, iv, 1 mg/kg, 1 mg/kg i.v. C(XX), mean ± SD, read-out: Apparent t1/2 of C(XX) in plasma (converted)): 33.8 min
clearance (male, C57Bl/6, mouse, plasma, iv, 1 mg/kg, C(XX) in plasma, 1 mg/kg i.v. C(XX), Mean ± SD): 320 mL/min/kg
AUC(0-inf) (male, C57Bl/6, mouse, plasma, iv, 1 mg/kg, C(XX) in plasma, 1 mg/kg i.v. C(XX), Mean ± SD, read-out: AUC0-inf): 53 ± 8.26 ng·h/mL

Source: patent publication US11746087B1, “C4-carboxylic acid-substituted tryptamine derivatives and methods of using” (priority 2022, dated 2023)
